Experimental findings from patent US7879837B2, “Therapeutic or prophylactic agent for multiple sclerosis” (Toray Industries, Inc., priority 2006, dated 2011) are described below.

One data set concerns Jurkat cells. The experiment in a line: Measurement of Inhibitory Effect on Leukocyte Functions (adhesion of Jurkat cells to ligand-expressing cells or ligand-immobilized plate). It counts as cell-based. The conditions noted are these: Homo sapiens, 0.5 h, read-out: IC50 (concentration at which the number of adherent cells is reduced by 50%). Here is the method:
Jurkat cells, which are the cell line originated from human acute T cell […], were allowed to react with BCECF-AM at 37° C. for 20 minutes to fluorescently label the cells. The fluorescently labelled Jurkat cells were allowed to react with ligand-expressing cells or with a ligand-immobilized plate at 37° C. for 30 minutes. After removing non-adherent cells by washing, 1% NP40 was added thereto to lyse the adherent cells, and fluorescence intensity was measured with Cytofluor 2300 (Millipore). From the obtained fluorescence intensity, the number of adherent cells was calculated. Each test compound was reacted with the Jurkat cells before the beginning of the adhesion reaction. In Table 18, the IC50 of each compound (i.e. the concentration at which the number of adherent cells is reduced by 50%) is shown.

A short description of data set [1]: Pharmacokinetic Evaluation in Rats. The conditions noted are these: rat, male SD rats, administered orally or intravenously, 0.5 mg/mL dosing solution, plasma up to 8 hours; for clearance: intravenous, read-out: CLtot (total clearance) (converted); for bioavailability: oral, read-out: BA (bioavailability). It counts as in vivo. As to the method:
Each compound was dissolved in PBS or PBS containing 10% PEG, thereby preparing 0.5 mg/mL dosing solution. The compound was administered orally or intravenously to male SD rats (7 to 9 weeks old). Blood was collected with time from the tail vein at time points up to 8 hours after the administration, and obtained blood was centrifuged to collect blood plasma. The blood plasma was pretreated by using the solid-phase extraction method, and the concentration of the compound was analyzed with LC/MS/MS (ESI negative mode).
As the Comparative Compound, 2-[4-((3,5-dichlorobenzensulfonylamino)methyl)benzoylamino]-5-(4-(methyl-pyrimidin-2-ylamino)phenyl)pent-4-enoic acid (XXI) described in WO 99/26923 was used.

Data set [2] deals with Mouse Experimental Autoimmune Encephalomyelitis Model. The experiment in a line: Inhibitory Effect of Compounds Against Mouse Experimental Autoimmune Encephalomyelitis Model. It counts as in vivo. The conditions noted are these: orally 50 mg/kg every day from one day before inoculation of PLP139-151; female SJL mouse; scored at Days 11, 12 or 14. Here is the method:
This method was carried out in accordance with the literature “Int. Immunol., 9, 1243-1251 (1997)”.
A PBS solution containing 2 mg/mL partial synthetic peptide (PLP139-151) of proteolipid protein was mixed with an equal amount of Freund's complete adjuvant, and the resulting mixture was inoculated intracutaneously into both lateral regions of 7-week-old female SJL mouse (Charles River Laboratories Japan) in a total amount of 0.1 mL (0.05 mL per one side). The compounds described in Example 77, Example 78, Example 80, Example 81, Example 83 and Example 84 were orally administered at a dose of 50 mg/kg every day from one day before the inoculation, and neurological symptoms was scored (0: normal, 1: limp tail or hind limb weakness, 2: limp tail and hind limb weakness, 3: partial hind limb paralysis, 4: complete hind limb paralysis, 5: moribund state) at Days 11, 12 or 14. The scoring was carried out by using the method described in Current Protocols in Immunology (John Wiley & Sons, Inc).

The mark [3] stands for this setting: Jurkat cell adhesion to ligand-expressing cells or ligand-immobilized plate, 37° C., 30 minutes.

Counter-ions that a name gives are not always drawn. Like-named read-outs stand apart in the source and are kept apart here.

For the compound `CCCCN(c1ccc(/C=C/CC(NC(=O)c2c(Cl)cccc2Cl)C(=O)O)cc1)c1ncccn1` (stereo not shown) [Example 37, (E)-5-(4-Butyl-pyrimidin-2-yl-amino)-phenyl]-2-(2,6-dichlorobenzamido)-pent-4-enoic acid sodium salt], in the data set with Jurkat cells, the IC50 was determined as 160 nM.
For `CC(C)=CCN(c1ccc(/C=C/CC(NC(=O)c2c(Cl)cccc2Cl)C(=O)O)cc1)c1ncccn1` (stereo not shown) [Example 51, (E)-2-(2,6-Dichlorobenzamido)-5-[4-((3-methyl-2-butenyl)-pyrimidin-2-ylamino)phenyl]pent-4-enoic acid sodium salt], the IC50 in the data set with Jurkat cells (setting [3]) was 100 nM.
In the case of `O=C(NC(C/C=C/c1ccc(N(CC2CC2)c2ncccn2)cc1)C(=O)O)c1c(Cl)cccc1Cl` (stereo not shown) [Example 53, (E)-5-[4-(Cyclopropylmethyl-pyrimidin-2-ylamino)phenyl]-2-(2,6-dichlorobenzamido)pent-4-enoic acid sodium salt], the IC50 in the data set with Jurkat cells was determined as 120 nM.
In the case of `CC(C)CN(c1ccc(/C=C/CC(NC(=O)c2c(Cl)cccc2Cl)C(=O)O)cc1)c1ncccn1` (stereo not shown) [Example 55, (E)-2-(2,6-Dichlorobenzamido)-5-[4-(isobutyl-pyrimidin-2-ylamino)phenyl]pent-4-enoic acid sodium salt], the IC50 with Jurkat cells is 420 nM.
As usually defined, the bioavailability is the share of a dose that reaches the circulation, judged against a reference dose that is usually intravenous. Take `COC1(c2ccc(/C=C/C[C@H](NC(=O)c3c(Cl)cccc3Cl)C(=O)O)cc2)CCOCC1` [Example 77, (S,E)-2-(2,6-Dichlorobenzamido)-5-[4-(4-methoxytetrahydropyran-4-yl)-phenyl]pent-4-enoic acid]: in data set [1], the clearance is 16 mL/min/kg and the bioavailability was found to be 20%. The IC50 with Jurkat cells (setting [3]) was determined as 49 nM. Also, the “rate of reduction of increase in the score of neurological symptoms” value in data set [2] worked out at 40%.
For the compound `COC1(c2ccc(/C=C/C[C@H](NC(=O)c3c(Cl)cccc3Cl)C(=O)[O-])cc2)CCOCC1.[Na+]` [Example 78, (S,E)-2-(2,6-Dichlorobenzamido)-5-[4-(4-methoxytetrahydropyran-4-yl)-phenyl]pent-4-enoic acid sodium salt], in data set [1], the clearance is 16.6 mL/min/kg and the bioavailability came to 26.1%. Besides, the “rate of reduction of increase in the score of neurological symptoms” value in data set [2] turned out to be 60%.
On to `CN(c1ccc(/C=C/C[C@H](NC(=O)c2c(Cl)cccc2Cl)C(=O)O)cc1)c1ncccn1` [Example 80, (S,E)-2-(2,6-Dichlorobenzamido)-5-[4-(methyl-pyrimidin-2-ylamino)phenyl]pent-4-enoic acid], for which, in data set [1], the clearance is 15.1 mL/min/kg and the bioavailability is 47.6%. Moreover, the IC50 in the data set on Jurkat cells (setting [3]) stood at 95 nM. Moreover, the “rate of reduction of increase in the score of neurological symptoms” value in data set [2] is reported as 60%.
As for `CN(c1ccc(/C=C/C[C@H](NC(=O)c2c(Cl)cccc2Cl)C(=O)[O-])cc1)c1ncccn1.[Na+]` [Example 81, (S,E)-2-(2,6-Dichlorobenzamido)-5-[4-(methyl-pyrimidin-2-ylamino)phenyl]pent-4-enoic acid sodium salt], in data set [1], the clearance is 16.1 mL/min/kg and the bioavailability is 50.9%. In data set [2], the “rate of reduction of increase in the score of neurological symptoms” value was found to be 68%.
As for `CC(C)N(c1ccc(/C=C/C[C@H](NC(=O)c2c(Cl)cccc2Cl)C(=O)O)cc1)c1ncccn1` [Example 83, (S,E)-2-(2,6-Dichlorobenzamido)-5-[4-(isopropyl-pyrimidin-2-ylamino)phenyl]pent-4-enoic acid], in data set [1], the clearance was 18.1 mL/min/kg and the bioavailability amounted to 40%. The IC50 with Jurkat cells (setting [3]) was found to be 17 nM. Moreover, the “rate of reduction of increase in the score of neurological symptoms” value in data set [2] came out at 70%.
Turning to `CC(C)N(c1ccc(/C=C/C[C@H](NC(=O)c2c(Cl)cccc2Cl)C(=O)[O-])cc1)c1ncccn1.[Na+]` [Example 84, (S,E)-2-(2,6-Dichlorobenzamido)-5-[4-(isopropyl-pyrimidin-2-ylamino)phenyl]pent-4-enoic acid sodium salt], in data set [1], the clearance was 19.6 mL/min/kg and the bioavailability turned out to be 58.5%. Further, the “rate of reduction of increase in the score of neurological symptoms” value in data set [2] was 67%.
